For ten molecules, EC50 results are on record in patent publication US20220235051A1, “DI-FLUORO AZEPANES AS HBV CAPSID ASSEMBLY MODULATORS” (priority 2019, published 2022).

For the test, the system named is HBV. Put plainly: HBV replication inhibition assay (BDNA assay) in HepG2.2.15 cells. It is filed as cell-based. As to conditions: Hepatitis B virus, HepG2.2.15, 144 h, HepG2.2.15 cells, BDNA assay, encapsidated HBV DNA in supernatant at day 6; read-out: HepG2.2.15 EC50 HBV DNA. Here is the method:
HBV replication inhibition by the disclosed compounds were determined in cells infected or transfected with HBV or cells with stably integrated HBV, such as HepG2.2.15 cells (Sells et al. 1987). In this example, HepG2.2.15 cells were maintained in cell culture medium containing 10% fetal bovine serum (FBS), Geneticin, L-glutamine, penicillin and streptomycin. HepG2.2.15 cells were seeded in 96-well plates at a density of 40,000 cells/well and were treated with serially diluted compounds at a final DMSO concentration of 0.5% either alone or in combination by adding drugs in a checker box format. Cells were incubated with compounds for three days, after which medium was removed and fresh medium containing compounds was added to cells and incubated for another three days. At day 6, supernatant was removed and treated with DNase at 37° C. for 60 minutes, followed by enzyme inactivation at 75° C. for 15 minutes. Encapsidated HBV DNA was released from the virions and covalently linked HBV polymerase by incubating in lysis buffer (Affymetrix QS0010) containing 2.5 μg proteinase K at 50° C. for 40 minutes. HBV DNA was denatured by addition of 0.2 M NaOH and detected using a branched DNA (BDNA) QuantiGene assay kit according to manufacturer recommendation (Affymetrix). HBV DNA levels were also quantified using qPCR, based on amplification of encapsidated HBV DNA extraction with QuickExtraction Solution (Epicentre Biotechnologies) and amplification of HBV DNA using HBV specific PCR probes that can hybridize to HBV DNA and a fluorescently labeled probe for quantitation. In addition, cell viability of HepG2.2.15 cells incubated with test compounds alone or in combination was determined by using CellTitre-Glo reagent according to the manufacturer protocol (Promega). The mean background signal from wells containing only culture medium was subtracted from all other samples, and percent inhibition at each compound concentration was calculated by normalizing to signals from HepG2.2.15 cells treated with 0.5% DMSO using equation E1.
% inhibition=(DMSOave−Xi)/DMSOave×100% E1
where DMSOave is the mean signal calculated from the wells that were treated with DMSO control (0% inhibition control) and Xi is the signal measured from the individual wells. EC50 values, effective concentrations that achieved 50% inhibitory effect, were determined by non-linear fitting using Graphpad Prism software (San Diego, Calif.) and equation E2.
Y=Ymin+(Ymax−Ymin)/(1+10(Log EC50−X)×HillSlope) E2
where Y represents percent inhibition values and X represents the logarithm of compound concentrations.
Selected disclosed compounds were assayed in the HBV replication assay (BDNA assay), as described above, and a representative group of these active compounds is shown in Table 3.

A word on the EC50: it is the concentration needed to bring the measured effect to its halfway point. Regarding `C[C@@H]1Cc2nn3c(c2CN1C(=O)Nc1ccc(F)c(C#N)c1)C(F)(F)CC[C@@H](O)C3` [Example 67, (3R,8R)-N-(3-cyano-4-fluorophenyl)-11,11-difluoro-8-hydroxy-3-methyl-3,4,8,9,10,11-hexahydro-1H-pyrido[4′,3′:3,4]pyrazolo[1,5-a]azepine-2(7H)-carboxamide], the EC50 came to 4 nM.

For `C[C@@H]1Cc2nn3c(c2CN1C(=O)Nc1ccnc(Br)c1F)C(F)(F)CC[C@@H](O)C3` [Example 68, (3R,8R)-N-(2-Bromo-3-fluoropyridin-4-yl)-11,11-di fluoro-8-hydroxy-3-methyl-3,4,8,9,10,11-hexahydro-1H-pyrido[4′,3′:3,4]pyrazolo[1,5-a]azepine-2(7H)-carboxamide], the concentration giving a half-maximal response (EC50) turned out to be 21 nM.

On to `C[C@@H]1Cc2nn3c(c2CN1C(=O)Nc1ccc(F)c(C(F)(F)F)c1)C(F)(F)CC[C@@H](O)C3` [Example 69, (3R,8R)-11,11-Difluoro-N-(4-fluoro-3-(trifluoromethyl)phenyl)-8-hydroxy-3-methyl-3,4,8,9,10,11-hexahydro-1H-pyrido[4′,3′:3,4]pyrazolo[1,5-a]azepine-2(7H)-carboxamide], for which the EC50 was determined as 7 nM.

Regarding `C[C@@H]1Cc2nn3c(c2CN1C(=O)Nc1ccnc(C(F)F)c1F)C(F)(F)CC[C@@H](O)C3` [Example 70, (3R,8R)-N-(2-(Difluoromethyl)-3-fluoropyridin-4-yl)-11,11-difluoro-8-hydroxy-3-methyl-3,4,8,9,10,11-hexahydro-1H-pyrido[4′,3′:3,4]pyrazolo[1,5-a]azepine-2(7H)-carboxamide], the EC50 turned out to be 31 nM.

Regarding `C[C@@H]1Cc2nn3c(c2CN1C(=O)Nc1ccc(F)c(C#N)c1)C(F)(F)CC[C@H](O)C3` [Example 71, (3R,8 S)-N-(3-Cyano-4-fluorophenyl)-11,11-difluoro-8-hydroxy-3-methyl-3,4,8,9,10,11-hexahydro-1H-pyrido[4′,3′:3,4]pyrazolo[1,5-a]azepine-2(7H)-carboxamide], the EC50 is 2 nM.

As to `C[C@@H]1Cc2nn3c(c2CN1C(=O)Nc1ccnc(Br)c1F)C(F)(F)CC[C@H](O)C3` [Example 72, (3R,8S)-N-(2-Bromo-3-fluoropyridin-4-yl)-11,11-difluoro-8-hydroxy-3-methyl-3,4,8,9,10,11-hexahydro-1H-pyrido[4′,3′:3,4]pyrazolo[1,5-a]azepine-2(7H)-carboxamide], the EC50 was found to be 9 nM.

Regarding `C[C@@H]1Cc2nn3c(c2CN1C(=O)Nc1ccc(F)c(C(F)(F)F)c1)C(F)(F)CC[C@H](O)C3` [Example 73, (3R,8S)-11,11-Difluoro-N-(4-fluoro-3-(trifluoromethyl)phenyl)-8-hydroxy-3-methyl-3,4,8,9,10,11-hexahydro-1H-pyrido[4′,3′:3,4]pyrazolo[1,5-a]azepine-2(7H)-carboxamide], the EC50 worked out at 2 nM.

As for `C[C@@H]1Cc2nn3c(c2CN1C(=O)Nc1ccnc(C(F)F)c1F)C(F)(F)CC[C@H](O)C3` [Example 74, (3R,8S)-N-(2-(Difluoromethyl)-3-fluoropyridin-4-yl)-11,11-difluoro-8-hydroxy-3-methyl-3,4,8,9,10,11-hexahydro-1H-pyrido[4′,3′:3,4]pyrazolo[1,5-a]azepine-2(7H)-carboxamide], the concentration giving a half-maximal response (EC50) was found to be 11 nM.

Turning to `C[C@@H]1Cc2nn3c(c2CN1C(=O)Nc1ccc(F)c(C#N)c1)C(F)(F)C[C@H](CO)CC3` [Example 131], the EC50 was determined as 3 nM.

For the molecule `C[C@@H]1Cc2nn3c(c2CN1C(=O)Nc1ccc(F)c(C#N)c1)C(F)(F)C(O)CCC3` (stereo partly drawn) [Example 143, (3R)-N-(3-Cyano-4-fluorophenyl)-11,11-difluoro-10-hydroxy-3-methyl-1,3,4,7,8,9,10,11-octahydro-2H-pyrido[4′,3′:3,4]pyrazolo[1,5-a]azepine-2-carboxamide], the EC50 was 154 nM.
